Like-named read-outs stand apart in the source and are kept apart here.
Molecular target: T1, human CTPS1 (Homo sapiens, UniProt P17812)
T1 sequence (P17812 1-591): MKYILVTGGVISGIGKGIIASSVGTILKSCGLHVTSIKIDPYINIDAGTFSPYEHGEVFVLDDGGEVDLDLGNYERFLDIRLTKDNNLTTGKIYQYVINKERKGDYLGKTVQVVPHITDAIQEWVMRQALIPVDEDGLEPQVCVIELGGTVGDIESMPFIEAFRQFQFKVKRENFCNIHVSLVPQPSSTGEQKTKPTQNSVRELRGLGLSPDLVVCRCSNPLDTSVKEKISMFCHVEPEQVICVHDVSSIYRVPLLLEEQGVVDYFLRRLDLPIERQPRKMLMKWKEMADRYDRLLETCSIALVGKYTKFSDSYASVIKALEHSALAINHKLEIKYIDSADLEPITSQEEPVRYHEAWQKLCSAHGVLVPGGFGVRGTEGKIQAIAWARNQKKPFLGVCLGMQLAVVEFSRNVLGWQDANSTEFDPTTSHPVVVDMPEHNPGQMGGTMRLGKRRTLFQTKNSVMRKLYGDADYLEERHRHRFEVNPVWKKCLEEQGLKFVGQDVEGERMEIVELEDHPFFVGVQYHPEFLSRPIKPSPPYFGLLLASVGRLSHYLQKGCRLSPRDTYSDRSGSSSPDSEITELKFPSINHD
Test: ADP-Glo assay, human CTPS1 enzyme inhibition
Type: biochemical
Details: read-out: ADP-Glo_WT_hCTPS1—25 nM_IC50 (IC50)
Summary of the method: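 ADP-Glo luminescence quantified ADP produced by 25 nM purified human CTPS1 (full length, FLAG-His tagged) at 25° C within the linear phase. Final substrates: ATP 120 μM, UTP 160 μM, GTP 60 μM, L-glutamine 100 μM; 1% DMSO; pH 7.4 HEPES buffer with Mg2+, KCl, DTT. Compound pre-incubated with enzyme 10 min, then with ATP/UTP 10 min.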

[1] = wild-type human CTPS1 25 nM, ATP 120 μM, UTP 160 μM, GTP 60 μM, L-glutamine 100 μM, 25 degrees C.
[2] = wild-type human CTPS1, 25 nM enzyme, ADP-Glo

In the case of `CCOc1cncc(-c2cnc(C(=O)N[C@H](c3nccc(NS(=O)(=O)C4CC4)c3F)[C@@H]3CCOC3)s2)n1` (single isomer, unassigned) [II-18], the IC50 [1] is reported as 5 to 25 nM.
Work on `CCOc1cncc(-c2cnc(C(=O)N[C@H](c3cc(NS(=O)(=O)C4CC4)ccn3)[C@H](C)CN3CCCCC3)s2)n1` (stereo in doubt) [I-53, N-((1S,2R)-1-(4-(cyclopropanesulfonamido)pyridin-2-yl)-2-methyl-3-(piperidin-1-yl)propyl)-5-(6-ethoxypyrazin-2-yl)thiazole-2-carboxamide] yielded an IC50 [2] of 5 to 25 nM.
`CCOc1cncc(-c2cnc(C(=O)N[C@H](c3cccc(NS(=O)(=O)C(F)F)c3)[C@H]3CCOC3)s2)n1` [I-187, N-((S)-(3-((difluoromethyl)sulfonamido)phenyl)((R)-tetrahydrofuran-3-yl)methyl)-5-(6-ethoxypyrazin-2-yl)thiazole-2-carboxamide] gave an IC50 [2] of 5 to 25 nM.
`C[C@@H](CN1CCCCC1)[C@@H](NC(=O)c1ncc(-c2cnn3ccc(Cl)cc23)s1)c1cc(NS(=O)(=O)C2CC2)ccn1` [I-55, 5-(5-chloropyrazolo[1,5-a]pyridin-3-yl)-N-((1R,2S)-1-(4-(cyclopropanesulfonamido)pyridin-2-yl)-2-methyl-3-(piperidin-1-yl)propyl)thiazole-2-carboxamide] gave an IC50 [2] of 50 to 100 nM.
With `C[C@@H](CO)[C@@H](NC(=O)c1ncc(-c2cnn3ccc(Cl)cc23)s1)c1cc(NS(=O)(=O)C2CC2)ccn1` [I-231, 5-(5-chloropyrazolo[1,5-a]pyridin-3-yl)-N-((1R,2R)-1-(4-(cyclopropanesulfonamido)pyridin-2-yl)-3-hydroxy-2-methylpropyl)thiazole-2-carboxamide] the IC50 [2] was 5 to 25 nM.
Work on `O=C(N[C@@H](c1nccc(NS(=O)(=O)C2CC2)c1F)[C@H]1CCOC1)c1ncc(-c2cnn3ccc(Cl)cc23)s1` (single isomer, unassigned) [II-5] yielded an IC50 [1] of 5 to 25 nM.
With `CCOc1cncc(-c2cnc(C(=O)N[C@@H](c3cccc(NS(=O)(=O)C(F)F)c3)[C@@H](C)CO)s2)n1` [I-244, N-((1R,2R)-1-(3-((difluoromethyl)sulfonamido)phenyl)-3-hydroxy-2-methylpropyl)-5-(6-ethoxypyrazin-2-yl)thiazole-2-carboxamide] the IC50 [2] was at most 5 nM.
`CCOc1cncc(-c2cnc(C(=O)N[C@@H](c3cccc(NS(=O)(=O)C(F)F)c3)[C@H](C)N3CCOCC3)s2)n1` [I-222, N-((1S,2S)-1-(3-((difluoromethyl)sulfonamido)phenyl)-2-morpholinopropyl)-5-(6-ethoxypyrazin-2-yl)thiazole-2-carboxamide] showed an IC50 [2] of 5 to 25 nM.
`CCOc1cncc(-c2cnc(C(=O)N[C@H](c3cc(NS(=O)(=O)C4CC4)ccn3)[C@@H]3CCN(CCF)C3)s2)n1` [I-108, N-((S)-(4-(cyclopropanesulfonamido)pyridin-2-yl)((R)-1-(2-fluoroethyl)pyrrolidin-3-yl)methyl)-5-(6-ethoxypyrazin-2-yl)thiazole-2-carboxamide] gave an IC50 [2] of 5 to 25 nM.
`CCOc1cncc(-c2cnc(C(=O)N[C@H](c3cc(NS(=O)(=O)C4CC4)ccn3)C3CCOCC3)s2)n1` [I-20, (S)—N-((4-(cyclopropanesulfonamido)pyridin-2-yl)(tetrahydro-2H-pyran-4-yl)methyl)-5-(6-ethoxypyrazin-2-yl)thiazole-2-carboxamide] gave an IC50 [2] of 5 to 25 nM.
With `CCOc1cncc(-c2cnc(C(=O)N[C@H](C[C@@H]3CCCCN3C(C)C)c3cc(NS(=O)(=O)C4CC4)ccn3)s2)n1` (single isomer, unassigned) [I-29] the IC50 [2] was over 100 nM.
`O=C(N[C@@H](CN1CCCC1)c1cc(NS(=O)(=O)C2CC2)ccn1)c1ncc(-c2cnn3ccc(Cl)cc23)s1` [I-162, (S)-5-(5-chloropyrazolo[1,5-a]pyridin-3-yl)-N-(1-(4-(cyclopropanesulfonamido)pyridin-2-yl)-2-(pyrrolidin-1-yl)ethyl)thiazole-2-carboxamide] gave an IC50 [2] of 50 to 100 nM.
In the case of `CCOc1cncc(-c2cnc(C(=O)N[C@@H](CN3C[C@H]4C[C@@H](C3)C4)c3cc(NS(=O)(=O)C4CC4)ccn3)s2)n1` [I-151, N-((S)-2-((1R,5R)-3-azabicyclo[3.1.1]heptan-3-yl)-1-(4-(cyclopropanesulfonamido)pyridin-2-yl)ethyl)-5-(6-ethoxypyrazin-2-yl)thiazole-2-carboxamide], the IC50 [2] is reported as 50 to 100 nM.
Compound `CCOc1cncc(-c2cnc(C(=O)N[C@H](c3cccc(NS(=O)(=O)C(F)F)c3)[C@@H]3COCCO3)s2)n1` [I-199, N-((R)-(3-((difluoromethyl)sulfonamido)phenyl)((R)-1,4-dioxan-2-yl)methyl)-5-(6-ethoxypyrazin-2-yl)thiazole-2-carboxamide] has an IC50 [2] of 5 to 25 nM.
`CCOc1cncc(-c2cnc(C(=O)N[C@H](CN3C[C@H]4C[C@@H](C3)C4)c3cc(NS(=O)(=O)C4CC4)ccn3)s2)n1` [I-152, N-((R)-2-((1R,5R)-3-azabicyclo[3.1.1]heptan-3-yl)-1-(4-(cyclopropanesulfonamido)pyridin-2-yl)ethyl)-5-(6-ethoxypyrazin-2-yl)thiazole-2-carboxamide] showed an IC50 [2] of 5 to 25 nM.
In the case of `CCOc1cncc(-c2cnc(C(=O)N[C@H](Cn3nccn3)c3cc(NS(=O)(=O)C4CC4)ccn3)s2)n1` [I-158, (R)-N-(1-(4-(cyclopropanesulfonamido)pyridin-2-yl)-2-(2H-1,2,3-triazol-2-yl)ethyl)-5-(6-ethoxypyrazin-2-yl)thiazole-2-carboxamide], the IC50 [2] is reported as 5 to 25 nM.
For `CCOc1cncc(-c2cnc(C(=O)N[C@@H](c3cc(NS(=O)(=O)C4CC4)ccn3)[C@@H](C)O)s2)n1` [I-269, N-((1S,2R)-1-(4-(cyclopropanesulfonamido)pyridin-2-yl)-2-hydroxypropyl)-5-(6-ethoxypyrazin-2-yl)thiazole-2-carboxamide], the IC50 [2] was at most 5 nM.
Work on `CCOc1cncc(-c2cnc(C(=O)N[C@@H](c3cc(NS(=O)(=O)C4CC4)ccn3)[C@@H]3COCCO3)s2)n1` [I-76, N-((S)-(4-(cyclopropanesulfonamido)pyridin-2-yl)((R)-1,4-dioxan-2-yl)methyl)-5-(6-ethoxypyrazin-2-yl)thiazole-2-carboxamide] yielded an IC50 [2] of at most 5 nM.
Work on `CCOc1cncc(-c2cnc(C(=O)N[C@@H](c3nccc(NS(=O)(=O)C4CC4)c3F)[C@@H]3CCOC3)s2)n1` (single isomer, unassigned) [II-19] yielded an IC50 [1] of 5 to 25 nM.
In the case of `CCOc1cncc(-c2cnc(C(=O)N[C@@H](CN3CCCCC3)c3cccc(NS(=O)(=O)C(F)F)c3)s2)n1` [I-219, (R)-N-(1-(3-((difluoromethyl)sulfonamido)phenyl)-2-(piperidin-1-yl)ethyl)-5-(6-ethoxypyrazin-2-yl)thiazole-2-carboxamide], the IC50 [2] is reported as 5 to 25 nM.
Compound `CCOc1cncc(-c2cnc(C(=O)N[C@@H](COC)c3cccc(NS(=O)(=O)C(F)F)c3)s2)n1` [I-293, (R)-N-(1-(3-((difluoromethyl)sulfonamido)phenyl)-2-methoxyethyl)-5-(6-ethoxypyrazin-2-yl)thiazole-2-carboxamide] has an IC50 [2] of 5 to 25 nM.
Work on `CCOc1cncc(-c2cnc(C(=O)N[C@H](c3cc(NS(=O)(=O)C4CC4)ccn3)[C@@H]3CN(C)CCO3)s2)n1` [I-99, N-((R)-(4-(cyclopropanesulfonamido)pyridin-2-yl)((S)-4-methylmorpholin-2-yl)methyl)-5-(6-ethoxypyrazin-2-yl)thiazole-2-carboxamide] yielded an IC50 [2] of 5 to 25 nM.
Compound `CCOc1cncc(-c2cnc(C(=O)N[C@H](c3cccc(NS(=O)(=O)C(F)F)c3)[C@H](C)CN3CCCCC3)s2)n1` (single isomer, unassigned) [II-13] has an IC50 [1] of over 100 nM.
`CCOc1cncc(-c2cnc(C(=O)N[C@@H](CC(C)(C)N(C)C)c3cc(NS(=O)(=O)C4CC4)ccn3)s2)n1` [I-50, (S)-N-(1-(4-(cyclopropanesulfonamido)pyridin-2-yl)-3-(dimethylamino)-3-methylbutyl)-5-(6-ethoxypyrazin-2-yl)thiazole-2-carboxamide] was tested, and the IC50 [2] was 5 to 25 nM.
For `CCOc1cncc(-c2cnc(C(=O)N[C@@H](c3cc(NS(=O)(=O)C4CC4)ccn3)[C@H](C)COC)s2)n1` [I-234, N-((1R,2S)-1-(4-(cyclopropanesulfonamido)pyridin-2-yl)-3-methoxy-2-methylpropyl)-5-(6-ethoxypyrazin-2-yl)thiazole-2-carboxamide], the IC50 [2] was at most 5 nM.
With `CCOc1cncc(-c2cnc(C(=O)N[C@H](CN3CCOC[C@@H]3C)c3cc(NS(=O)(=O)C4CC4)ccn3)s2)n1` (single isomer, unassigned) [I-35] the IC50 [2] was at most 5 nM.
For `CCOc1cncc(-c2cnc(C(=O)N[C@@H](CCN(C)C3CCCCC3)c3cc(NS(=O)(=O)C4CC4)ccn3)s2)n1` (single isomer, unassigned) [I-13], the IC50 [2] was 50 to 100 nM.
Compound `CCOc1cncc(-c2cnc(C(=O)N[C@H](CN3CCCCC3)c3cccc(NS(=O)(=O)C(F)F)c3)s2)n1` [I-218, (S)-N-(1-(3-((difluoromethyl)sulfonamido)phenyl)-2-(piperidin-1-yl)ethyl)-5-(6-ethoxypyrazin-2-yl)thiazole-2-carboxamide] has an IC50 [2] of 25 to 50 nM.

Source: patent US20250270200A1, “CTPS1 INHIBITORS AND USES THEREOF” (Nimbus Clotho, Inc., priority 2022, published 2025)
